Assay results reported in PubChem BioAssay (NCI).
Several values for one entry are separate records, joined by “and”; a condition that tells them apart may be missing. Equal entries are not always repeated.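 Dose response: 5 concentrations. Exposure: 48 h. Format: 96-well plates. Endpoint: linear interpolation; highest concentration if not reached. GI50: concentration for 50% inhibition of growth. TGI denotes the concentration required for complete inhibition of growth.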

Legend:
Experiment in all cases: NCI anticancer screen, dose series, 48 h
NCI/ADR-RES ovarian = test system: NCI/ADR-RES ovarian
K-562 leukemia = test system: K-562 leukemia
OVCAR-8 ovarian = test system: OVCAR-8 ovarian
OVCAR-3 ovarian = test system: OVCAR-3 ovarian
CAKI-1 renal = test system: CAKI-1 renal
UO-31 renal = test system: UO-31 renal
MALME-3M melanoma = test system: MALME-3M melanoma
DU-145 prostate = test system: DU-145 prostate
M14 melanoma = test system: M14 melanoma
SF-268 CNS = test system: SF-268 CNS

SMILES	TGI (NCI/ADR-RES ovarian)	TGI (K-562 leukemia)	TGI (OVCAR-8 ovarian)	TGI (OVCAR-3 ovarian)	TGI (CAKI-1 renal)	TGI (UO-31 renal)	TGI (MALME-3M melanoma)	TGI (DU-145 prostate) [µM]	TGI (M14 melanoma) [µM]	TGI (SF-268 CNS)	GI50 (NCI/ADR-RES ovarian)	GI50 (K-562 leukemia)	GI50 (OVCAR-8 ovarian)	GI50 (OVCAR-3 ovarian) [µM]	GI50 (CAKI-1 renal)	GI50 (UO-31 renal)	GI50 (MALME-3M melanoma)	GI50 (DU-145 prostate) [µM]	GI50 (M14 melanoma) [µM]	GI50 (SF-268 CNS)
CC1=NN(c2ccc(S(=O)(=O)O)cc2)C(=O)/C1=C/c1ccc(Cl)cc1	> 100 µM	> 100 µM	> 100 µM	> 100 µM	> 100 µM	> 100 µM	> 100 µM	> 100	> 100	> 100 µM	–	–	–	–	–	–	–	–	–	–
Cc1nc(-c2nc(-c3ccc(OC(F)(F)F)cc3)no2)nn1Cc1cccc(N2CCC(S(C)(=O)=O)CC2)c1	28.6 µM	> 100 µM	> 100 µM	> 100 µM	29.8 µM	> 100 µM	> 76.8 µM	> 100	> 100	> 100 µM	0.529 µM	< 0.01 µM	3.86 µM	11.6	3.28 µM	1.46 µM	> 34.3 µM	> 42.8	5.66	> 40.9 µM
Cn1nc(C(F)(F)F)cc1-c1c[nH]c(OCc2ccc(Cl)cc2)c(-c2ccc(Cl)c(C(F)(F)F)c2)c1=O	> 50 µM	> 50 µM	> 50 µM	19.5 µM	2.91 µM	3.56 µM	3.07 µM	> 50	4.26	> 23.8 µM	1.42 µM	0.724 µM	1.19 µM	1.19	0.917 µM	1.05 µM	1.09 µM	1.64	1.27	1.08 µM
O=[N+]([O-])c1ccc(C2=Nn3c(nnc3-c3ccc(Cl)cc3)SC2)o1	45.1 µM	4.89 µM	26.3 µM	10.6 µM	18.4 µM	15.4 µM	12.4 µM	39.6	14.3	30.2 µM	–	–	–	–	–	–	–	–	–	–
c1ccc2cc(NCNc3ccc4ccccc4c3)ccc2c1	72.5 µM	38.8 µM	58.2 µM	29.2 µM	42.7 µM	41.6 µM	20 µM	27.4	29.1	> 100 µM	–	–	–	–	–	–	–	–	–	–
C[C@@H]1CCC([C@@H](C)[C@H]2CC[C@H]3[C@@H]4CC[C@H]5C[C@@H](O)CC[C@]5(C)[C@H]4CC[C@]23C)=NC1	> 100 µM	> 100 µM	> 100 µM	> 100 µM	66.6 µM	46.3 µM	> 100 µM	> 100	> 48.9	> 100 µM	–	–	–	–	–	–	–	–	–	–
O=C([O][Hg][CH2]C1OCCOC1[CH2][Hg][O]C(=O)c1ccccc1)c1ccccc1 (stereo not given)	40.7 µM	5.46 µM	44 µM	3.8 µM	3.12 µM	3.27 µM	3.88 µM	29.6	9.52	30.9 µM	18.7 µM	1.83 µM	14.9 µM	2.16	1.74 µM	1.79 µM	2.18 µM	16.1	5.2	17.2 µM
COC(=O)C1=COC(C)C2CN3CCc4c([nH]c5cc(OC)c(OC)cc45)C3CC12 (stereo not given)	> 100 µM	> 100 µM	> 100 µM	> 100 µM	> 100 µM	> 100 µM	> 100 µM	> 100	> 100	> 100 µM	15.1 µM and 64.2 µM	–	> 100 µM and 45.1 µM	–	–	–	–	–	–	–
CC1(C)CC[C@]2(C(=O)O)CC[C@]3(C)C(=CC[C@@H]4[C@@]5(C)C[C@H](O)[C@H](O)[C@@](C)(C(=O)O)[C@@H]5CC[C@]43C)[C@@H]2C1	> 100 µM	> 100 µM	> 100 µM	> 100 µM	> 100 µM	> 100 µM	> 100 µM	> 100	> 100	> 100 µM	–	–	–	–	–	–	–	–	–	–
NC(N)=NC(N)=Nc1cnccn1	> 100 µM	> 100 µM	> 100 µM	> 100 µM	> 100 µM	> 100 µM	> 100 µM	> 100	> 100	–	–	–	–	–	–	–	–	–	–	–
CC(C)(C)[Si](C)(C)OC1[C@@H](O[Si](C)(C)C(C)(C)C)[C@@H](CNC(=O)NC(=O)CF)O[C@H]1n1cnc2c(NC(=O)Nc3ccccc3)ncnc21 (stereo not given in full)	> 50 µM	> 50 µM	> 50 µM	23.4 µM	> 50 µM	> 50 µM	> 50 µM	> 50	> 50	> 50 µM	48.5 µM	14.7 µM	12.8 µM	11.1	27.3 µM	11.2 µM	30.8 µM	17.7	15.9	12.6 µM
Cn1cc(C2=C(c3c4n(c5ccccc35)CCC(CN)C4)C(=O)NC2=O)c2ccccc21 (stereo not given)	25 µM	8.27 µM	8.92 µM	7.63 µM	8.75 µM	6.58 µM	6.07 µM	7.02	7.58	7.65 µM	14.9 µM	3.54 µM	3.77 µM	3.58	3.91 µM	3.25 µM	2.75 µM	3.63	3.46	3.95 µM
O=C1NC2C(=CC(O)C(O)C2O)c2cc3c(cc21)OCO3 (stereo not given)	0.561 µM and 3.38 µM	3.64 µM and 7.68 µM	2.25 µM and 1.72 µM	2.36 µM and 1.42 µM	1.7 µM and 1.8 µM	2.29 µM and 2.41 µM	1.29 µM and 1.86 µM	1.83	1.41	3.37 µM and 3.58 µM	0.152 µM	0.294 µM and 0.149 µM	0.344 µM and 0.171 µM	0.441	0.331 µM and 0.158 µM	0.279 µM and 0.264 µM	0.426 µM and 0.193 µM	–	0.424	0.354 µM and 0.337 µM
COc1ccc2c(c1)oc(=O)c1cc(OC)ccc12	> 100 µM	> 100 µM	> 100 µM	> 100 µM	> 100 µM	> 100 µM	> 100 µM	> 100	> 100	> 100 µM	> 100 µM	> 100 µM	> 100 µM	> 100	> 100 µM	32.9 µM	> 100 µM	> 100	> 100	> 100 µM
